Measured values taken from publication PMC4604124, “In Vitro Characterization of the Pharmacological Properties of the Anti-Cancer Chelator, Bp4eT, and Its Phase I Metabolites” (PLoS ONE, 2015).
Several values for one entry are separate records, joined by “and”; a condition that tells them apart may be missing. Equal values may be shown once. Read-outs that look alike come from different tables or passages of the source.

Tests used:
[1] = tested on: HL-60 human promyelocytic leukemia cells; assay: MTT cytotoxicity assay, HL-60 cells; format: cell-based; conditions: for IC50: MTT, read-out: IC50
Experimental: For cytotoxicity experiments, cancer cells were seeded at a density of 5,000 (MCF-7), 10,000 (HL-60) or 2,000 cells/well (HCT116 and A549) in 96-well plates (TPP) for 24 h/37°C prior to the addition of examined agents. The non-cancerous cells, 3T3 and H9c2 cells, were cultured for 24 h/37°C in 96-well plates at a density of 10,000 cells/well, the medium was then changed to serum- and pyruvate-free DMEM (Sigma-Aldrich) and incubated with the cells for another 24 h/37°C. The cytotoxic effects of Bp4eT and its metabolites were studied at different concentrations after a 72 h/37°C incubation. In order to aid the dissolution of the lipophilic ligands, 0.1% dimethyl sulfoxide (v/v) (DMSO; Sigma-Aldrich) was present in the culture medium of all groups. At this concentration, DMSO had no effect on cellular proliferation or viability.
The viability of cells were determined using an MTT assay (Sigma-Aldrich) according to previously established methods. The optical density of soluble MTT was measured at λ = 570 nm, subtracting the λ = 690 nm background using a Tecan Infinite 200M plate reader (Tecan Group, Männedorf, Switzerland). The viability or proliferation of experimental groups was expressed as a percentage of the untreated controls (100%).
SigmaStat for Windows 3.5 (Systat Software, San Jose, CA, USA) statistical software package was utilized to analyze results. The data are expressed as the mean ± SD of a given number of experiments. Statistical significance was determined using a one-way ANOVA with a Bonferroni post-hoc test or Student’s t-test. The results were considered to be statistically significant when p < 0.05. The IC50 values were calculated using CalcuSyn 2.0 software (Biosoft, Cambridge, UK). Cell cycle analysis was evaluated using MultiCycle AV Software (Phoenix Flow Systems, San Diego, CA, USA).

MCF-7 cells = assay: Cellular 59Fe uptake from 59Fe2-transferrin; format: cell-based, human; set-up: key to Uptake 59Fe, Ave / Uptake 59Fe: % of internalized 59Fe in untreated control cells; conditions: Control Ave = 100
Procedure, shortened: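 Confluent MCF-7 cells were incubated 3 h at 37°C with 0.75 μM ⁵⁹Fe₂-transferrin (500 pCi/pmol Fe) plus chelator at 25 μM. Membrane-bound ⁵⁹Fe was released with Pronase (1 mg/mL, 30 min, 4°C). Pronase-insensitive internalized ⁵⁹Fe was expressed as % of untreated control.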

caspase 8 = assay: Caspase activity, luminescent kit, caspase 8; format: cell-based, human; conditions: for kaspáza 8, raw signal / kaspáza 8, signal / viabilita: individual experiments by date; for kaspáza 8, raw signal, průměry / kaspáza 8, % kontroly / kaspáza 8, signal / viabilita, průměry: mean; for kaspáza 8, % kontroly / kaspáza 8, signal / viabilita / kaspáza 8, signal / viabilita, průměry: normalised to viability
Experimental: (§1) To assess the effect of the compounds on caspase activity, MCF-7 cells were incubated with 100 nM Bp4eT or its metabolites for 3, 24 or 72 h/37°C in 96-well plates, as described above. The cells were then lysed by adding 100 μL of cold lysis buffer (100 mM HEPES, 10 mM CHAPS, 10 mM D-L-dithiothreitol, pH 7.4) to 100 μL of medium in each well. Lysates were immediately frozen at -80°C. Thawed lysates were used to assess caspase activity using luminescent kits for caspases 3/7, 8 and 9 (Promega, Madison, WI, USA). The luminescence was measured using the Tecan Infinite 200M plate reader. Caspase activity in the experimental groups was corrected according to the cellular viability of each group and expressed as a percentage of activity of the untreated control (100%).

caspase 9 = assay: Caspase activity, luminescent kit, caspase 9; format: cell-based, human; conditions: for kaspáza 9, raw signal / kaspáza 9, signal / viabilita: individual experiments by date; for kaspáza 9, raw signal, průměry / kaspáza 9, % kontroly / kaspáza 9, signal / viabilita, průměry: mean; for kaspáza 9, % kontroly / kaspáza 9, signal / viabilita / kaspáza 9, signal / viabilita, průměry: normalised to viability
Experimental: as §1

## CCNC(=O)NN=C(c1ccccc1)c1ccccn1 [E-Bp4eS, 2-benzoylpyridine 4-ethylsemicarbazone]
[1]; 3T3/HL-60
  Therapeutic index, IC50 non-cancerous cells / IC50 neoplastic cells: >6.6
[1]; H9c2/HL-60
  Therapeutic index, IC50 non-cancerous cells / IC50 neoplastic cells: 5.9
[1]; HL-60, 72 h/37°C, mean ± SD, n ≥ 4
  IC50: 151 ± 9.1 µM
[1]; HL-60, 10 000 b/j, 3 μM, průměr (mean), sheet E-Bp4eS
  MTT, relative to control (0 = 100): 97.96
[1]; HL-60, 10 000 b/j, 3 μM, single experiment (date), sheet E-Bp4eS
  MTT, relative to control (0 = 100): 100.761 and 104.358 and 95.5768 and 91.1569
[1]; HL-60, 10 000 b/j, 10 μM, průměr (mean), sheet E-Bp4eS
  MTT, relative to control (0 = 100): 99.97
[1]; HL-60, 10 000 b/j, 10 μM, single experiment (date), sheet E-Bp4eS
  MTT, relative to control (0 = 100): 101.567 and 98.1615 and 96.1949 and 103.964
[1]; HL-60, 10 000 b/j, 30 μM, průměr (mean), sheet E-Bp4eS
  MTT, relative to control (0 = 100): 95.62
[1]; HL-60, 10 000 b/j, 30 μM, single experiment (date), sheet E-Bp4eS
  MTT, relative to control (0 = 100): 99.0132 and 96.6154 and 90.9257 and 95.914
[1]; HL-60, 10 000 b/j, 100 μM, průměr (mean), sheet E-Bp4eS
  MTT, relative to control (0 = 100): 79.54
[1]; HL-60, 10 000 b/j, 100 μM, single experiment (date), sheet E-Bp4eS
  MTT, relative to control (0 = 100): 81.2266 and 75.7782 and 76.5508 and 84.6199
[1]; HL-60, 10 000 b/j, 120 μM, průměr (mean), sheet E-Bp4eS
  MTT, relative to control (0 = 100): 74.92
[1]; HL-60, 10 000 b/j, 120 μM, single experiment (date), sheet E-Bp4eS
  MTT, relative to control (0 = 100): 75.3051 and 80.9667 and 70.8568 and 72.5675
[1]; HL-60, 10 000 b/j, 140 μM, průměr (mean), sheet E-Bp4eS
  MTT, relative to control (0 = 100): 62.34
[1]; HL-60, 10 000 b/j, 140 μM, single experiment (date), sheet E-Bp4eS
  MTT, relative to control (0 = 100): 62.4842 and 69.381 and 45.4725 and 72.037
[1]; HL-60, 10 000 b/j, 150 μM, průměr (mean), sheet E-Bp4eS
  MTT, relative to control (0 = 100): 38.39
[1]; HL-60, 10 000 b/j, 300 μM, průměr (mean), sheet E-Bp4eS
  MTT, relative to control (0 = 100): 3.81
[1]; HL-60, 10 000 b/j, single experiment (date), sheet E-Bp4eS
  IC50: 159 µM and 144 µM and 141 µM
[1]; Homo sapiens, HL-60, HL-60, 10 000 b/j, průměr (mean), sheet E-Bp4eS
  IC50: 150 µM
[1]; Homo sapiens, HL-60, HL-60, 10 000 b/j, single experiment (date), sheet E-Bp4eS
  IC50: 158 µM
MCF-7 cells; average of all replicates
  Uptake 59Fe, Ave: 105.146
MCF-7 cells; single replicate (three per date)
  Uptake 59Fe: 102.106 and 110.477 and 102.867 and 98.5761 and 110.59 and 101.139 and 107.081 and 112.704 and 100.772
Caspase 8; 3 hodiny
  kaspáza 8, raw signal: 1819 and 1041 and 1191.5 and 952.5
  kaspáza 8, raw signal, průměry: 1251
  kaspáza 8, % kontroly: 93.96 % kontroly
  kaspáza 8, signal / viabilita: 18.5259 and 10.6022 and 12.135 and 9.701
  kaspáza 8, signal / viabilita, průměry: 12.741
Caspase 8; 24 hodin
  kaspáza 8, raw signal: 1530 and 1548 and 1983.5 and 1503
  kaspáza 8, raw signal, průměry: 1641.12
  kaspáza 8, % kontroly: 104.70 % kontroly
  kaspáza 8, signal / viabilita: 15.3819 and 15.5629 and 19.9412 and 15.1105
  kaspáza 8, signal / viabilita, průměry: 16.4991
Caspase 8; 72 hodin
  kaspáza 8, raw signal: 6786.5 and 6488.5 and 6545 and 6983
  kaspáza 8, raw signal, průměry: 6700.75
  kaspáza 8, % kontroly: 98.51 % kontroly
  kaspáza 8, signal / viabilita: 69.3845 and 66.3378 and 66.9154 and 71.3935
  kaspáza 8, signal / viabilita, průměry: 68.5078
Caspase 9; 3 hodiny
  kaspáza 9, raw signal: 5048 and 2733 and 3173 and 2706.5
  kaspáza 9, raw signal, průměry: 3415.12
  kaspáza 9, % kontroly: 105.55 % kontroly
  kaspáza 9, signal / viabilita: 51.4121 and 27.8346 and 32.3159 and 27.5647
  kaspáza 9, signal / viabilita, průměry: 34.7818
Caspase 9; 24 hodin
  kaspáza 9, raw signal: 3856 and 3865 and 5378.5 and 4257
  kaspáza 9, raw signal, průměry: 4339.12
  kaspáza 9, % kontroly: 110.34 % kontroly
  kaspáza 9, signal / viabilita: 38.7665 and 38.857 and 54.073 and 42.798
  kaspáza 9, signal / viabilita, průměry: 43.6236
Caspase 9; 72 hodin
  kaspáza 9, raw signal: 22791 and 20686 and 21610 and 23932
  kaspáza 9, raw signal, průměry: 22254.8
  kaspáza 9, % kontroly: 104.60 % kontroly
  kaspáza 9, signal / viabilita: 233.013 and 211.492 and 220.939 and 244.678
  kaspáza 9, signal / viabilita, průměry: 227.53
